Measured values reported in paper PMC9082340 (ACS applied materials & interfaces, 2020).
Ends that are not written are not given here.

How the values were obtained:
[1] = tested on: HEK-293 T cells expressing PH-LgBiT; assay: NanoLuc; assay type: cell-based; settings: PyB 25–200 μM in PBS 5 min before 1 μM YARA-HiBiT or R6-HiBiT (Figure S29)
HEK-293 T cells = assay type: cell-based; settings: pyrene butyrate treatment
[2] = previous literature reports; cited from earlier work
[3] = tested on: A7r5 rat aortic vascular smooth muscle cells; assay: Cell viability; assay type: cell-based; settings: 10 μM peptide, A7r5 cells (Figure S19-G)

Row | Molecule | Increase in activity over peptide alone with pyrene butyrate [1] | Cell viability at 100 μM (29 μg/mL) (HEK-293 T cells) | Cell viability at 200 μM (58 μg/mL) (HEK-293 T cells) | Activity enhancement reported for pyrene butyrate [2] | Toxicity of peptide dose [3]
1 | O=C(O)CCCc1ccc2ccc3cccc4ccc1c2c34 [pyrene butyrate, 1-pyrenebutyric acid] | ≤ 1.3 fold | 65% | 57% | 1.5–5 fold | 
2 | YARAAARQARAKALARQLGVAA [YARA-MK2i] |  |  |  |  | nontoxic
